Legend:
[1] = test system: Hela cells; experiment: Liquid in situ hybridization with flow cytometry, DMSO plus additional compound (Example 4), 28S RNA and NR probes; type: cell-based; settings: for 28S RNA Probe, mean LFL1 / NR Probe, mean LFL1 / Ratio 28S RNA/NR (ratio of mean LFL1): 10% additional compound with 9% DMSO; for 28S RNA Probe, mean LFL1: FITC 28S RNA probe, water control 6.070, average of four experiments; for NR Probe, mean LFL1: FITC NR probe (non-specific binding and autofluorescence), water control 0.137; for Ratio 28S RNA/NR (ratio of mean LFL1): water control 44; for Signal brightness compared to nine percent DMSO alone: additional compound in combination with nine percent DMSO; for Signal intensity after precipitation (biphasic mixture): 10 percent compound with 9% DMSO
Description: (§1) A Coulter Profile II flow cytometer was used for flow cytometry. With FITC as the probe dye, the filter for LFL3 was a 635 nm long pass filter and the filter for LFL1 was a 540 bp filter; the excitation wavelength was 488 nm. PMT1 and PMT3 settings were adjusted as required. A typical useful setting when fluorescein is the dye moiety is to have a PMT1 setting of 1100, a PMT3 setting of 900, and color compensation (PMT1, PMT3) of 15 percent.
(§2) Liquid in Situ Cell Preparation and Hybridization Protocol
(§3) 1. Cells were fixed in solution F, then resuspended in 2x SSC.
(§4) 2. The cells were spun out of solution and resuspended in an assay solution (consisting of the hybridization cocktail HC alone or in combination with a compound or compounds being tested as an enhancer.)
(§5) 3. After 30 min. at 42° C., the cells were washed in wash solution #1 preheated to 42° C. by centrifuging them out of the assay solution.
(§6) 4. Cells were next washed in wash solution #2 preheated to 42° C.
(§7) 5. Cells were resuspended in a 1X PBS solution containing 0.002% trypan blue as a counterstain.
(§8) 6. Cells were run on a flow cytometer and a "Count vs. LFL1" histogram was generated. ("Count" refers to cell count.) This histogram was used as the basis for determining the mean LFL1.
The effect on probe signal intensity of adding, in addition to DMSO, additional compounds to the assay solution was determined in an in situ liquid hybridization assay. The data was analyzed by flow cytometry.
The Liquid In Situ Cell Preparation and Hybridization Protocol was followed. The cells used were Hela cells. The probes used were a 28S RNA probe (SEQ ID NO: 1) and an NR probe.
The 28S RNA probe (SEQ ID NO: 1) is a target-specific probe specific for ribosomal RNA fluorescence obtained with it represents the sum of fluorescence from target-bound probe, non-specifically bound probe and autofluorescence from cellular molecules. The NR probe (SEQ ID NO: 2) is specific for a plant nucleic acid sequence and, in the current Example, the fluorescence obtained with it represent the sum of fluorescence from non-specifically bound probe and autofluorescence.
(§9) In this experiment, the hybridization cocktail consisted of nine volumes of HC-DMSO plus one volume of additional compound. In the control sample, one volume of water replaced the one volume of additional compound. As a result, in all samples, the concentration of DMSO was 9 percent (v/v).
The ratio, 28S/NR, is the ratio of the mean LFL1 observed with the 28S RNA probe (SEQ ID NO: 1) to the mean LFL1 observed with the NR probe (SEQ ID NO: 2). The results in the "28S RNA probe" and "NR probe" columns give the mean LFL1 observed with the 28S RNA and NR probes, respectively (SEQ ID NO: 1 and SEQ ID NO: 2, respectively).

[2] = test system: α-satellite DNA; experiment: Liquid in situ hybridization with flow cytometry, DMSO plus squalane plus additional compound (Example 5), α-satellite DNA and NR probes; type: cell-based; settings: for NR Probe, mean LFL1: DMSO-only control 0.175; for α-SAT Probe, mean LFL1: DMSO-only control 3.829; for Ratio α-SAT/NR (ratio of mean LFL1): DMSO-only control 22; for Increase of DNA probe signal intensity compared to 9% DMSO alone: DMSO plus squalane plus the additional compound
Description: as §1, §2, §3, §4, §5, §6, §7, §8
The Liquid In Situ Cell Preparation and Hybridization Protocol was followed.
The "α-satellite" DNA probe is a target specific probe specific α-satellite DNA. Fluorescence obtained with it represents the sum of fluorescence from target-bound probe, non-specifically bound probe and autofluorescence from cellular molecules.
The effect of a combination of DMSO and squalane on the probe signal was measured as was that combination further enhanced with a third compound.
In this Example, in all but two cases, the hybridization cocktail consisted of 9 volumes of HC-DMSO, a half volume of squalane, and a half volume of an additional compound. In one case, the additional compound was replaced by water, so that the hybridization compound consisted of 9 volumes of HC-DMSO, a half volume of squalane, and a half volume of water. In the control sample, the cocktail consisted of nine volumes of HC-DMSO and one volume of water. As a result, in all samples, there was 9 percent DMSO (v/v). When present, squalane was present at 5 percent. When present, the additional compound was present at 5%.
The ratio, α-SAT/NR, is the ratio of the mean LFL1 for the α-satellite DNA probe ([…]) to the mean LFL1 for the NR probe.

[3] = test system: Human female white blood cells (karyotype XX); experiment: Signal enhancers in the mounting solution after in situ hybridization (Example 6), HXR probes, fluorescent microscope; type: cell-based; settings: one volume compound plus 9 volumes mounting solution; rhodamine HXR probes; water control = 1
Method: After the in situ hybridization step, the cells were washed and then modified mounting solution was added and cells were observed under the microscope for fluorescence signal. Modified mounting solution was 9 volumes of mounting solution and one volume of additional compound, which was the compound being tested for its ability to be a signal enhancer. Mounting solution consisted of 0.1% 1,4 diphenylamine (antifade) in 50% glycerol (v/v), and nuclear stain Hoechst (#33258; 1 ug/ml).
Human female white blood cells (karyotype XX) were hybridized at 85° C. for 15 minutes with female chromosome HXR probes labelled with a rhodamine fluor. Cells were washed with wash buffers #1 and #2, and then suspended in a modified mounting solution. The additional compound in the modified mounting solution was varied; as a control, water was used as the additional compound. The signal intensity was observed under the fluorescent microscope.

[4] = test system: Hepg 2 cells; experiment: Slide in situ hybridization, DMSO plus one additional compound (Example 2), HYR probe; type: cell-based, human; settings: 10% (v/v) additional compound with 9% DMSO; slide rating x 0.5, water control = 2; average of four experiments
Method: Slide in situ Cell Preparation and Hybridization Protocol
1) Cells were suspended in a fixative (3 vol ethanol plus 1 vol methanol) and transferred to glass slides by centrifugation using a Cytospin apparatus.
2) The assay solution (consisting of the hybridization cocktail HC alone or mixed with a compound or compounds being tested as an enhancer) with the DNA probe (25 ul) was placed over the cells and covered with a coverslip.
3) The slide was heated at 90° C. for 5 minutes for DNA denaturation, then incubated at 46° C. for 30 minutes for hybridization.
4) Cells were washed once with the wash solution #1, which was equilibrated at 42° C. Then cells were washed ten times with wash solution #2, which was equilibrated at 42° C.
5) Mounting solution (50% glycerol (v/v) in 1×PBS plus the nuclear stain Hoechst, (#33258; 1 ug/ml) was placed on the cells and covered with a coverslip.
6) The hybridization signal was observed under an Olympus BH10 microscope with fluorescent capabilities using a rhodamine derivative filters (excitation wavelength of 567 nm, emission wavelength of 584 nm).
The inclusion of DMSO in an in situ assay solution increased the permeation of the nucleic acid probes into the cells and gave hybridization signal in over 95% of the cells. In this Example, we show the effect of adding, in addition to DMSO, 10 percent (v/v) of an additional compound to the assay solution. The additional compounds added were: squalane (an aliphatic alkane), dodecyl alcohol (an alcohol), beta-cyclodextrin (a sugar), isopropyl palmitate (a fatty acid ester), 1,2, propanediol (an alcohol), pyrrolidinone (a lactam) and hexamethyldisiloxane (an organic silane).
In this Example, the hybridization cocktail consisted of nine volumes of HC-DMSO plus one volume of an additional compound. In the control sample, one volume of water was added instead of one volume of additional compound. As a result, in all samples, the concentration of DMSO in the cocktail was 9 percent (v/v).
The Slide In Situ Cell Preparation and Hybridization protocol was followed. The cells used were Hepg 2 cells. The probe used was an HYR probe specific for human Y chromosome α-satellite DNA repeated sequences; at its 5' end, via an Aminolink linker molecule, the probe was linked to a Texas Red moiety. A signal intensity of 4 was assigned to the slide in which the assay solution was HC plus 10% DMSO (control slide) and all other slides were rated 1, 2, 3 or 4 in comparison to the control slide, depending on whether the intensity was 1, 2, 3, or 4 times that of the control slide, respectively.
The results are an average of four independent experiments.

[5] = Precipitation of additional compound from the hybridization cocktail (Example 4); type: physicochemical; settings: 10 percent in hybridization cocktail (HC-DMSO)
Description: as §9

[6] = 5% additional compound with 5% squalane and 9% DMSO
[7] = 5% squalane with 9% DMSO, water instead of additional compound

Row | Precipitation from solution [5] | Compound | 28S RNA Probe, mean LFL1 [1] | NR Probe, mean LFL1 [1] | Ratio 28S RNA/NR (ratio of mean LFL1) [1] | Signal brightness compared to nine percent DMSO alone [1] | NR Probe, mean LFL1 [2, 6] | α-SAT Probe, mean LFL1 [2, 6] | Ratio α-SAT/NR (ratio of mean LFL1) [2, 6] | Increase of DNA probe signal intensity compared to 9% DMSO alone [2] | Signal Intensity Scale of 1 to 4 [3] | Fluorescent signal (Scale of 1 to 4) [4] | Signal intensity after precipitation (biphasic mixture) [1] | NR Probe, mean LFL1 [2, 7] | α-SAT Probe, mean LFL1 [2, 7] | Ratio α-SAT/NR (ratio of mean LFL1) [2, 7] | Increase of DNA probe signal intensity compared to DMSO alone ([2]; squalane plus DMSO) [fold]
1 | – | CCCCCCCCCCCCCCCC(=O)OC(C)C [isopropyl palmitate] | 8.057 | 0.140 | 58 | increased the signal brightness | 0.117 | 5.988 | 52 | 2.4 fold | 4 | 1.5 | – | – | – | – | –
2 | – | C[Si](C)(C)O[Si](C)(C)C [hexamethyldisiloxane] | 7.426 | 0.126 | 59 | increased the signal brightness | – | – | – | – | 2 | 1 | – | – | – | – | –
3 | – | CC(O)CO (stereo not drawn) [1,2-propanediol] | 8.227 | 0.148 | 56 | increased the signal brightness | 0.151 | 5.876 | 39 | 1,8 fold | 4 | 2 | – | – | – | – | –
4 | precipitation from solution | CC(C)CCCC(C)CCCC(C)CCCCC(C)CCCC(C)CCCC(C)C (stereo not drawn) [squalane] | 0.611 | 0.123 | – | – | – | – | – | – | 3 | 2 | markedly decreased | 0.125 | 4.604 | 37 | 1.68
5 | – | CCCCCCCC/C=C\CCCCCCCC(=O)O [oleic acid] | 3.643 | 0.142 | 26 | – | – | – | – | – | – | 2 | – | – | – | – | –
6 | precipitation from solution | CCCCCCCC/C=C\CCCCCCCCO [oleyl alcohol] | 0.731 | 0.136 | – | – | – | – | – | – | 3 | 1.5 | markedly decreased | – | – | – | –
7 | – | CC(C)=CCC/C(C)=C/CC/C(C)=C/CC/C=C(\C)CC/C=C(\C)CCC=C(C)C [squalene] | – | – | – | – | – | – | – | – | 3 | – | – | – | – | – | –
8 | – | hydroxypropylcyclodextrin | – | – | – | – | – | – | – | – | 2 | – | – | – | – | – | –
9 | – | OC[C@H]1O[C@@H]2O[C@H]3[C@H](O)[C@@H](O)[C@@H](O[C@H]4[C@H](O)[C@@H](O)[C@@H](O[C@H]5[C@H](O)[C@@H](O)[C@@H](O[C@H]6[C@H](O)[C@@H](O)[C@@H](O[C@H]7[C@H](O)[C@@H](O)[C@@H](O[C@H]8[C@H](O)[C@@H](O)[C@@H](O[C@H]1[C@H](O)[C@H]2O)O[C@@H]8CO)O[C@@H]7CO)O[C@@H]6CO)O[C@@H]5CO)O[C@@H]4CO)O[C@@H]3CO [beta-cyclodextrin] | 9.593 | 0.135 | 71 | increased the signal brightness | 0.131 | 3.720 | 29 | – | – | 1.5 | – | – | – | – | –
10 | – | O=C1CCCN1 [2-pyrrolidinone] | 10.19 | 0.133 | 77 | increased the signal brightness | 0.135 | 10.38 | 77 | 3.5 fold | 3 | 2 | – | – | – | – | –

Reference: patent US5521061A, “Enhancement of probe signal in nucleic acid-mediated in-situ hybridization studies” (Aprogenex, Inc., priority 1992, dated 1996)
